Measured values from article PMC7088350 (Chemistry of Heterocyclic Compounds, 2014).
≈ marks a conversion by molar mass, not a printed value. Where “and” joins values, the source holds several entries; their conditions need not be identical. Equal values may be shown once. Read-outs that look alike come from different tables or passages of the source.

Experiments:
[1] = tested on: Feline coronavirus; assay: Antiviral activity; type: cell-based; details: for MIC50 Feline coronavirus: CRFK cells; for MIC50: Alphacoronavirus 1, read-out: MIC50 Feline coronavirus
[2] = tested on: Feline herpes virus; assay: Antiviral activity; type: cell-based; details: for MIC50: read-out: MIC50 Feline herpes virus
[3] = tested on: Human Erythroleukemia Cells (HEL); assay: Cytotoxicity; type: cell-based; details: morphological changes detected microscopically
[4] = tested on: Simplex herpes 1 KOS virus; assay: Antiviral activity; type: cell-based, Simplex herpes 1 virus; details: read-out: MIC50 Simplex herpes 1 KOS virus
[5] = tested on: Influenza A H1N1 virus; assay: Antiviral activity; type: cell-based; details: for MIC50: Influenza A virus
[6] = tested on: Vesicular stomatitis virus; assay: microbe, parasite or virus in culture; type: cell-based; details: read-out: MIC50 Vesicular stomatitis virus
[7] = tested on: Sindbis virus; assay: Antiviral activity; type: cell-based; details: read-out: MIC50 Sindbis virus
[8] = tested on: Simplex herpes 2 G virus; assay: Antiviral activity; type: cell-based, Simplex herpes 2 virus; details: read-out: MIC50 Simplex herpes 2 G virus
[9] = tested on: Reovirus 1; assay: Antiviral activity; type: cell-based; details: Mammalian orthoreovirus 1, read-out: MIC50 Reovirus 1
[10] = tested on: Vesicular stomatitis virus; assay: microbe, parasite or virus in culture; type: cell-based; details: read-out: MIC50 Vesicular stomatitis virus; remark: listed apart in the source
[11] = tested on: Influenza A H3N2 virus; assay: Antiviral activity; type: cell-based; details: for MIC50: Influenza A virus
[12] = tested on: Simplex herpes 1 TK-KOS ACVr virus; assay: Antiviral activity; type: cell-based, Simplex herpes 1 virus; details: read-out: MIC50 Simplex herpes 1 TK-KOS ACVr virus
[13] = tested on: Influenza B virus; assay: Antiviral activity; type: cell-based; details: for MIC50: Influenza B virus
[14] = tested on: Respiratory syncytial virus; assay: Antiviral activity; type: cell-based; details: human respiratory syncytial virus, read-out: MIC50 Respiratory syncytial virus
[15] = tested on: Cervical Cancer Cells (HeLa); assay: Cytotoxicity in HeLa cells; type: cell-based
[16] = tested on: Parainfluenza 3 virus; assay: Antiviral activity; type: cell-based; details: read-out: MIC50 Parainfluenza 3 virus
[17] = Cytotoxicity in MDCK cells; type: cell-based, Cocker Spaniel; details: dog
[18] = tested on: Cocker Spaniel Hepatocytes (MDCK); assay: Cytotoxicity in MDCK cells; type: cell-based
[19] = tested on: Parainfluenza 3 virus; details: literature data; cited from earlier work
[20] = tested on: Influenza A H3N2 virus; details: literature; cited from earlier work
[21] = tested on: Influenza B virus; details: literature; cited from earlier work
[22] = tested on: African Green Monkey Epithelial Kidney Cells (VERO); assay: Cytotoxicity in VERO cells; type: cell-based
[23] = tested on: Feline Kidney Cells (CRFK); assay: Cytotoxicity in CRFK cells; type: cell-based
[24] = tested on: Respiratory syncytial virus; details: literature data; cited from earlier work
[25] = tested on: Influenza A H1N1 virus; details: previously reported; cited from earlier work
[26] = H1N1, read-out: MIC50 Influenza A H1N1 virus CA
[27] = H1N1, read-out: MIC50 Influenza A H1N1 virus VA
[28] = H3N2, read-out: MIC50 Influenza A H3N2 virus CA
[29] = H3N2, read-out: MIC50 Influenza A H3N2 virus VA
[30] = read-out: MIC50 Influenza B virus CA
[31] = read-out: MIC50 Influenza B virus VA
[32] = MDCK cells, colorimetric assessment
[33] = MDCK cells, visual assessment (microscopy)

Row | Compound | MCC (minimum cytotoxic concentration) [3] | MIC50 [4] | MIC50 [5, 26] | MIC50 [5, 27] | MIC50 [6] | MIC50 [7] | MIC50 [8] | MIC50 [9] | MIC50 [10] | MIC50 [11, 28] | MIC50 [11, 29] | MIC50 [12] | MIC50 [13, 30] | MIC50 [13, 31] | MIC50 [14] | MCC [15] | MIC50 [16] | CC50 [17] | MCC [18] | further results
1 | 3'-(1-Carboxy-1-phosphonoxyethoxy)uridinediphosphate-N-acetylglucosamine [UDA] |  |  |  |  |  |  |  |  |  |  |  |  |  |  |  |  |  |  |  | MIC50 Feline coronavirus [1]: 1.1 µM; MIC50 Feline herpes virus ([2]; CRFK cells): 0.8 µM
2 | CCOC(=O)c1c([C@@H]2C[C@H]2c2ccccc2)n(C)c2ccc(O)cc12 (relative stereo) [Compound 3, ethyl 5-hydroxy-1-methyl-2-(trans-2-phenylcyclopropyl)-1H-indole-3-carboxylate] | > 300 μM and > 100 μg/ml | > 300 µM and > 100 µg/mL | > 12 µM and > 4 µg/mL | > 12 µM and > 4 µg/mL | > 300 µM and > 100 µg/mL | > 300 µM and > 100 µg/mL | > 300 µM and > 100 µg/mL | > 300 µM and > 100 µg/mL | > 300 µM and > 100 µg/mL | > 12 µM and > 4 µg/mL | > 12 µM and > 4 µg/mL | > 300 µM and > 100 µg/mL | > 12 µM and > 4 µg/mL | > 12 µM and > 4 µg/mL | > 300 µM and > 100 µg/mL | > 300 μM and > 100 μg/ml | > 300 µM and > 100 µg/mL | 59.6 µM and 20 µg/mL |  | MIC50 [1]: > 300 µM and > 100 µg/mL; MIC50 [2]: > 300 µM and > 100 µg/mL
3 | N[C@H]1C(C(=O)O)=CC=C[C@@H]1O (relative stereo) [HHA, (2S,3S)-trans-3-Hydroxy-2,3-dihydroanthranilic acid] |  |  |  |  |  |  |  |  |  |  |  |  |  |  |  |  |  |  |  | MIC50 Feline coronavirus [1]: 13.0 µM (≈ 2.02 µg/mL)
4 | Nc1ncnc2c1ncn2C[C@H](O)CO [(S)-DHPA, 9-((2S)-2,3-Dihydroxypropyl)adenine] |  |  |  |  |  | > 250 µM |  | > 250 µM | > 250 µM |  |  |  |  |  | > 250 µM | >250 µM | > 250 µM |  |  | 
5 | Nc1nc2c(ncn2COCCO)c(=O)[nH]1 [Acyclovir] | >250 µM | 0.2 µM (≈ 0.045 µg/mL) |  |  | 250 µM (≈ 56.3 µg/mL) |  | 0.08 µM (≈ 0.018 µg/mL) |  |  |  |  | 2 µM (≈ 0.45 µg/mL) |  |  |  |  |  |  |  | 
6 | NC12CC3CC(CC(C3)C1)C2 [Amantadine] |  |  | 83.9 µM (≈ 12.7 µg/mL) | 89 µM (≈ 13.5 µg/mL) |  |  |  |  |  | 1.6 µM (≈ 0.242 µg/mL) | 4 µM (≈ 0.605 µg/mL) |  | > 200 µM | > 200 µM |  |  |  | > 200 µM | >200 µM | 
7 | O=c1[nH]c(=O)n([C@H]2C[C@H](O)[C@@H](CO)O2)cc1/C=C/Br [Brivudine] | >250 µM | 0.04 µM (≈ 0.0133 µg/mL) |  |  | > 250 µM |  | 183 µM (≈ 61 µg/mL) |  |  |  |  | 2 µM (≈ 0.666 µg/mL) |  |  |  |  |  |  |  | 
8 | Nc1ccn(C[C@@H](CO)OCP(=O)(O)O)c(=O)n1 [Cidofovir] | >250 µM | 6 µM (≈ 1.68 µg/mL) |  |  | > 250 µM |  | 2 µM (≈ 0.558 µg/mL) |  |  |  |  | 6 µM (≈ 1.68 µg/mL) |  |  |  |  |  |  |  | 
9 | Nc1nc(O)c2ncn(COC(CO)CO)c2n1 [Ganciclovir] | >100 µM | 0.08 µM (≈ 0.0204 µg/mL) |  |  | > 100 µM |  | 0.03 µM (≈ 0.00766 µg/mL) |  |  |  |  | 0.2 µM (≈ 0.051 µg/mL) |  |  |  |  |  |  |  | MIC50 [1]: > 100 µM
10 | CC(N)C12CC3CC(CC(C3)C1)C2 (centres unmarked) [Remantadine] |  |  |  |  |  |  |  |  |  |  |  |  |  |  |  |  |  |  | >200 µM | MIC50 Influenza A H1N1 virus CA [5, 32]: 10.3 µM (≈ 1.85 µg/mL); MIC50 Influenza A H1N1 virus VA [5, 33]: 20 µM (≈ 3.59 µg/mL); MIC50 Influenza A H3N2 virus CA [11, 32]: 0.3 µM (≈ 0.0538 µg/mL); MIC50 Influenza A H3N2 virus VA [11, 33]: 0.3 µM (≈ 0.0538 µg/mL); MIC50 Influenza B virus CA [13, 32]: >200 µM; MIC50 Influenza B virus VA [13, 33]: >200 µM
11 | NC(=O)c1ncn([C@@H]2O[C@H](CO)[C@@H](O)[C@H]2O)n1 [Ribavirin] |  |  | 6.4 µM (≈ 1.56 µg/mL) | 9 µM (≈ 2.2 µg/mL) |  | > 250 µM |  | > 250 µM | 10 µM (≈ 2.44 µg/mL) | 10.7 µM (≈ 2.61 µg/mL) | 9 µM (≈ 2.2 µg/mL) |  | 5.9 µM (≈ 1.44 µg/mL) | 20 µM (≈ 4.88 µg/mL) | 10 µM (≈ 2.44 µg/mL) | >250 µM | 50 µM (≈ 12.2 µg/mL) | > 100 µM | >100 µM | 
12 | CCOC(=O)c1c(CSc2ccccc2)n(C)c2cc(Br)c(O)c(CN(C)C)c12.Cl.O [Umifenovir, Ethyl 6-bromo-4-(dimethylamino)methyl-5-hydroxy-1-methyl-2-(phenylsulfanyl)methyl-1 H -indole-3-carboxylate hydrochloride monohydrate] | 188 μM and 100 μg/ml | > 37 µM and > 20 µg/mL | > 7.5 µM and > 4 µg/mL | > 7.5 µM and > 4 µg/mL | > 37 µM and > 20 µg/mL | > 190 µM and > 100 µg/mL | > 37 µM and > 20 µg/mL | > 190 µM and > 100 µg/mL | > 7.5 µM and > 4 µg/mL | > 7.5 µM and > 4 µg/mL | > 7.5 µM and > 4 µg/mL | > 37 µM and > 20 µg/mL | > 7.5 µM and > 4 µg/mL | > 7.5 µM and > 4 µg/mL | > 7.5 µM and > 4 µg/mL | 37 μM and 20 μg/ml | > 190 µM and > 100 µg/mL | 37 µM and 20 µg/mL | 19.6 μM and 10.4 μg/ml | MIC50 parainfluenza 3 virus [19]: 4.9 µg/mL; MIC50 H3N2 influenza A virus replication [20]: 6.7 µg/mL; MIC50 influenza B virus replication [21]: 7.1 µg/mL; MCs [22]: > 190 μM and > 100 μg/ml; MIC50 [1]: > 7.5 µM and > 4 µg/mL; MIC50 [2]: > 7.5 µM and > 4 µg/mL; MCC [23]: 19.0 μM and 10.1 μg/ml; MCC ([23]; listed as umifenovir): 10.1 µg/mL; MIC50 respiratory syncytial virus [24]: 8.7 µg/mL; MCC ([18]; listed as umifenovir): 10.4 µg/mL; MIC50 influenza A H1N1 virus replication [25]: 2.7 to 4.0 µg/mL
13 | CC(=O)N[C@H]1[C@H]([C@H](O)[C@H](O)CO)OC(C(=O)O)=C[C@@H]1N=C(N)N [Zanamivir] |  |  | 1.2 µM (≈ 0.399 µg/mL) | 0.8 µM (≈ 0.266 µg/mL) |  |  |  |  |  | 2 µM (≈ 0.665 µg/mL) | 4 µM (≈ 1.33 µg/mL) |  | 0.3 µM (≈ 0.0997 µg/mL) |  |  |  |  | > 100 µM | >100 µM | 
